Drawing on publication PMC8305169, “Two Pathway-Specific Transcriptional Regulators, PltR and PltZ, Coordinate Autoinduction of Pyoluteorin in Pseudomonas protegens Pf-5” (Microorganisms, 2021), this text covers Kd for one compound.

For this test, the target named is T1, PltZ (Pseudomonas protegens, UniProt Q4KCY3).
T1 construct: full-length, N-terminal 6xHis tag (pET28a), expressed in E. coli BL21 (DE3), Ni-NTA purified
Put plainly: isothermal titration calorimetry. Format: binding. For orientation: Isothermal titration calorimetry measures the heat released or taken up as one component is titrated into another.

T1 sequence (Q4KCY3 entry or part of it): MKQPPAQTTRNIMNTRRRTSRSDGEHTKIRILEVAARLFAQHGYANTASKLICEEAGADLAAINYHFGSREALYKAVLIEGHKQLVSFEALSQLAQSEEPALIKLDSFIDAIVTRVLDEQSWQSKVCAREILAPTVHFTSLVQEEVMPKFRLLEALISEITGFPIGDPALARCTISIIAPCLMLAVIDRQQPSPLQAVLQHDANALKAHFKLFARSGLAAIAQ

In turn, `O=C(c1cc(Cl)c(Cl)[nH]1)c1c(O)cccc1O` [pyoluteorin] came in with a Kd of roughly 13.2 nM.

The term Kd denotes the constant that tells how readily two partners part at equilibrium. High values mean a looser complex, low ones a tighter complex.
